Tested on: NCI-H23 complex spheroids with HUVEC/MSC, viability
Assay: Anticancer human tumor NCI-H23 cell line growth inhibition [RAS];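 as to viability, T/C: 100% = DMSO vehicle control viability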
Details: for IC50: curve of first compound; for viability, T/C: stronger effect = lower value
From the text: RAS pathway inhibitors in Combinations in Complex Spheroids
A high-throughput screen of multi-cell type tumor spheroids was designed to identify active combinations of RAS pathway inhibitors and targeted small molecules. Complex spheroids include a stromal component modeled by human endothelial cells (HUVEC) and fibroblasts modeled by human mesenchymal stem cells (MSCs). The concentration ranges selected for each drug and investigational agent were based upon clinically achievable concentrations if the clinical Cmax of the agent was known.
Compounds. The drugs and investigational agents: abemaciclib (NSC768073), cobimetinib (NSC768068), divarasib (GDC6063, NSC841802), docetaxel (NSC628503), GDC-1971 (RLY-1971, NSC841576), gemcitabine (NSC613327), inavolisib (NSC800729), ipatasertib (NSC767898), KB-0742 (NSC834161), MRTX-1133 (NSC836407), osimertinib (NSC779217), RMC-4630 (NSC839698), RMC-6236 (NSC851965), RMC-6291 (NSC852671), Ro-3306 (NSC812927), sapanisertib (NSC764658), SN-38 (NSC673596), staurosporine (NSC755774), SY5609 (NSC837396), and tovorafenib (DAY101, NSC766906), were obtained from the National Cancer Institute (NCI) Developmental Therapeutics Program Chemical Repository. The FDA-approved anticancer drug set is available from the NCI Developmental Therapeutics Program. […] The stock solutions were prepared in dimethyl sulfoxide (DMSO, Sigma-Aldrich, St. Louis, MO, cat. D2650) at 800-fold the tested concentration and stored at -70 degrees C prior to their use. All drugs and investigational agents were tested over a range starting from a high concentration at or near the clinical Cmax and decreasing in half-log increments. If the clinical Cmax for an agent had not been determined, the highest concentration tested was 10 microM.
Cell Culture. All cells were maintained in an incubator at 37 degrees C and 5% CO2 with 95% humidity. The PDC lines were cultured according to standard operating procedures established by the NCI PDMR. All PDCs were thawed and cultured in Matrigel-coated flasks prepared with a working solution of 1X Ham's F-12 nutrient mix, without supplementation (Invitrogen, Waltham, MA, cat. 11765054), 100 U/mL penicillin-streptomycin (Invitrogen, cat. 15140122), and 2.5% Matrigel (Corning Inc., Corning, NY, cat. 354248) for the first three passages. The 362531-283-R-J2-PDC and 782815-120-R-J1-PDC lines were cultured in 6C/Colon 1B media, which includes advanced DMEM/F-12 (Thermo Fisher Scientific, cat. 12634028), 10 mM HEPES (Thermo Fisher Scientific, cat. 15630080), 1X GlutaMAX supplement (Thermo Fisher Scientific, cat. 35050061), 0.1 mg/mL primocin (InvivoGen, San Diego, CA, cat. ant-pm-2), 10% defined fetal bovine serum, heat inactivated (HyClone Laboratories Inc., Logan, UT, cat. SH30070.03HI), 50% L-WRN conditioned media (ATCC, cat. CRL-3276), 1.25 mM N-Acetyl-L-cysteine (Sigma-Aldrich, cat. A9165), 10 mM nicotinamide (Sigma-Aldrich, cat. N0636), 1X B-27 supplement (Thermo Fisher Scientific, cat. 17504044), 1X N-2 supplement (Thermo Fisher Scientific, cat. 17502048), 50 ng/mL human EGF (Thermo Fisher Scientific, cat. PHG0311), and 10 microM Y-27632 dihydrochloride (Tocris Bioscience, cat. 1254). The K12877-001-R-J1-PDC line was cultured in 6I media, which includes all 6C/Colon 1B media plus 10 ng/mL human FGF-10 (PeproTech, cat. 100-26), 1 ng/mL human FGF-2 (PeproTech, cat. 100-18B), 1 µM prostaglandin E2 (Tocris Bioscience, cat. 2296), […] hydrocortisone (Sigma-Aldrich, cat. H4001), and […] bovine insulin (Sigma-Aldrich, cat. I6634). The K86415-001-R-J1-PDC line was cultured in 6D media, which includes all 6C/Colon 1B media components minus the L-WRN conditioned media. The 485176-168-R4-J1-PDC was cultured in PANC media, which includes all 6C/Colon 1B media plus 100 ng/mL human FGF-10 (PeproTech, cat. 100-26), 500 nM SB-431542 (Selleckchem, cat. S1067), and 10 nM gastrin (Tocris Bioscience, cat. 3006). […]

[1] = second compound 0.0316 µM, first compound 0.0316 µM
[2] = second compound 0.0316 µM, first compound 0.1 µM
[3] = second compound 0.0316 µM, first compound 0.316 µM
[4] = second compound 0.0316 µM, first compound 1 µM
[5] = second compound 0.1 µM, first compound 0.0316 µM
[6] = second compound 0.1 µM, first compound 0.1 µM
[7] = second compound 0.1 µM, first compound 0.316 µM
[8] = second compound 0.1 µM, first compound 1 µM
[9] = second compound 0.316 µM, first compound 0.0316 µM
[10] = second compound 0.316 µM, first compound 0.1 µM
[11] = second compound 0.316 µM, first compound 0.316 µM
[12] = second compound 0.316 µM, first compound 1 µM
[13] = second compound 1 µM, first compound 0.0316 µM
[14] = second compound 1 µM, first compound 0.1 µM
[15] = second compound 1 µM, first compound 0.316 µM
[16] = second compound 1 µM, first compound 1 µM
[17] = second compound 3.16 µM, first compound 0.0316 µM
[18] = second compound 3.16 µM, first compound 0.1 µM
[19] = second compound 3.16 µM, first compound 0.316 µM
[20] = second compound 3.16 µM, first compound 1 µM
[21] = second compound 10 µM, first compound 0.0316 µM
[22] = second compound 10 µM, first compound 0.1 µM
[23] = second compound 10 µM, first compound 0.316 µM
[24] = second compound 10 µM, first compound 1 µM

With `CCN1CCN(Cc2ccc(Nc3ncc(F)c(-c4cc(F)c5nc(C)n(C(C)C)c5c4)n3)nc2)CC1` + C#Cc1c(F)ccc2cc(O)cc(-c3ncc4c(N5CC6CCC(C5)N6)nc(OCC56CCCN5CC(F)C6)nc4c3F)c12 the IC50 (second compound 0.0316 µM) was greater than 1000 nM, the IC50 (second compound 0.1 µM) was greater than 1000 nM and the IC50 (second compound 0.316 µM) was 89.5 nM. For the same compound, the IC50 (second compound 1 µM) was 56.2 nM, the IC50 (second compound 3.16 µM) was 12.2 nM and the IC50 (second compound 10 µM) was less than 3.16 nM. For the same compound, the viability, T/C (second compound 0.0316 µM, first compound 0.00316 µM) was 105%, the viability, T/C (second compound 0.0316 µM, first compound 0.01 µM) was 102% and the viability, T/C [1] was 79%. For the same compound, the viability, T/C [2] was 61.8%, the viability, T/C [3] was 61.2% and the viability, T/C [4] was 60.9%. For the same compound, the viability, T/C (second compound 0.1 µM, first compound 0.00316 µM) was 104%, the viability, T/C (second compound 0.1 µM, first compound 0.01 µM) was 108% and the viability, T/C [5] was 70%. For the same compound, the viability, T/C [6] was 56.8%, the viability, T/C [7] was 50.9% and the viability, T/C [8] was 52.2%. The viability, T/C (second compound 0.316 µM, first compound 0.00316 µM) was 94.2%, the viability, T/C (second compound 0.316 µM, first compound 0.01 µM) was 109% and the viability, T/C [9] was 71.8%. It also gave a viability, T/C [10] of 51.4%, a viability, T/C [11] of 48.4% and a viability, T/C [12] of 43.3%. It also gave a viability, T/C (second compound 1 µM, first compound 0.00316 µM) of 81.2%, a viability, T/C (second compound 1 µM, first compound 0.01 µM) of 75% and a viability, T/C [13] of 56.6%. The viability, T/C [14] was 42.6%, the viability, T/C [15] was 40.4% and the viability, T/C [16] was 34.7%. The viability, T/C (second compound 3.16 µM, first compound 0.00316 µM) was 54.5%, the viability, T/C (second compound 3.16 µM, first compound 0.01 µM) was 53.3% and the viability, T/C [17] was 37.9%. It also gave a viability, T/C [18] of 29%, a viability, T/C [19] of 30% and a viability, T/C [20] of 22.8%. The viability, T/C (second compound 10 µM, first compound 0.00316 µM) was 30.3%, the viability, T/C (second compound 10 µM, first compound 0.01 µM) was 39.5% and the viability, T/C [21] was 26.5%. It also gave a viability, T/C [22] of 21.1%, a viability, T/C [23] of 22.2% and a viability, T/C [24] of 21%.
Compound `C[C@@H](NC(=O)c1ncnc(N)c1Cl)c1ncc(C(=O)Nc2cc(C(F)(F)F)c(Cl)cn2)s1` + C#Cc1c(F)ccc2cc(O)cc(-c3ncc4c(N5CC6CCC(C5)N6)nc(OCC56CCCN5CC(F)C6)nc4c3F)c12 has an IC50 (second compound 0.0316 µM) greater than 10000 nM, an IC50 (second compound 0.1 µM) greater than 10000 nM and an IC50 (second compound 0.316 µM) greater than 10000 nM. For the same compound, the IC50 (second compound 1 µM) was greater than 10000 nM, the IC50 (second compound 3.16 µM) was greater than 10000 nM and the IC50 (second compound 10 µM) was less than 31.6 nM. The viability, T/C [1] was 110%, the viability, T/C [2] was 112% and the viability, T/C [3] was 98.9%. The viability, T/C [4] was 99.9%, the viability, T/C (second compound 0.0316 µM, first compound 3.16 µM) was 92.3% and the viability, T/C (second compound 0.0316 µM, first compound 10 µM) was 66.5%. For the same compound, the viability, T/C [5] was 103%, the viability, T/C [6] was 110% and the viability, T/C [7] was 105%. The viability, T/C [8] was 99.5%, the viability, T/C (second compound 0.1 µM, first compound 3.16 µM) was 91.8% and the viability, T/C (second compound 0.1 µM, first compound 10 µM) was 66.2%. For the same compound, the viability, T/C [9] was 104%, the viability, T/C [10] was 110% and the viability, T/C [11] was 106%. It also gave a viability, T/C [12] of 99.4%, a viability, T/C (second compound 0.316 µM, first compound 3.16 µM) of 85.6% and a viability, T/C (second compound 0.316 µM, first compound 10 µM) of 74.4%. It also gave a viability, T/C [13] of 90.3%, a viability, T/C [14] of 96.2% and a viability, T/C [15] of 93.1%. For the same compound, the viability, T/C [16] was 86.1%, the viability, T/C (second compound 1 µM, first compound 3.16 µM) was 83.3% and the viability, T/C (second compound 1 µM, first compound 10 µM) was 60.7%. For the same compound, the viability, T/C [17] was 67.2%, the viability, T/C [18] was 69.3% and the viability, T/C [19] was 60.8%. For the same compound, the viability, T/C [20] was 56.9%, the viability, T/C (second compound 3.16 µM, first compound 3.16 µM) was 53.6% and the viability, T/C (second compound 3.16 µM, first compound 10 µM) was 52.5%. It also gave a viability, T/C [21] of 38.7%, a viability, T/C [22] of 49.5% and a viability, T/C [23] of 46.3%. The viability, T/C [24] was 41.1%, the viability, T/C (second compound 10 µM, first compound 3.16 µM) was 48.1% and the viability, T/C (second compound 10 µM, first compound 10 µM) was 38.3%.

Source: PubChem BioAssay AID2060885 (Molecular Pharmacology Branch, DTP, NCI, 2025)
